The source of these data is PMC8739956 (Frontiers in Oncology, 2021).

SMILES strings stand for the structures. “Also recorded” adds a separate entry of the source. Like-named read-outs stand apart in the source and are kept apart here.

For data set [1] the following is noted: cited from earlier work.
The conditions of data set [2]: cited from earlier work. The source holds these as a separate data set.
In data set [3] the test system is DLBCL. The settings on record: 14-d ibrutinib therapy before TEDDI-R; cited from earlier work.
On the set-up of data set [4]: method as in PMID 32583848. The settings on record: cited from earlier work; for Mean CSF (trough concentration): PCNSL patients.
Data set [5] concerns DLBCL. The following applies: cited from earlier work.
Data set [6] has as its system diffuse large B-cell lymphoma (DLBCL). Description: Clinical response of DLBCL patients (Lugano 2014 / 2005 IELSG criteria). In kind it is in vivo, human. The following applies: for MRI lesion in the cerebellum: case 5, zanubrutinib monotherapy. The procedure: Patients with treatment-naive and relapsed/refractory DLBCL were enrolled in this study. […] The exclusion criteria were as follows: severe disease complications or serious comorbidities; active infection; uncontrolled bleeding events; and pregnancy or lactation in women.
The dose of zanubrutinib was fixed at 160 mg twice per day in all patients. Treatment duration and the combined drugs/regimens were decided by the clinicians.
Four regimens were evaluated in this study: Regimen 1, zanubrutinib + rituximab in primary vitreoretinal lymphoma (PVRL) (zanubrutinib at 160 mg twice per day until disease progression or intolerance and rituximab at 375 mg/m^2 every 21 days); Regimen 2, zanubrutinib combined with high-dose methotrexate with or without cytarabine (HD-MTX regimen/MA regimen) in CNSL (methotrexate at 3.5–5.0 g/m^2 d1 and cytarabine at […] every 12 h on d2 and d3, every 21 days per cycle); Regimen 3, zanubrutinib combined with dexamethasone, ifosfamide, carboplatin, and etoposide (DICE) or dexamethasone, cytarabine, and cis-platinum (DHAP) in relapsed and refractory patients every 21 days per cycle as prescribed for the salvage chemotherapy of autologous stem cell transplantation (ASCT); and Regimen 4, zanubrutinib combined with rituximab, cyclophosphamide, epirubicin, vindesine, and prednisone (R-CHOP) for eight cycles as an initial treatment in IVLBCL.
The clinical response was assessed based on the Lugano 2014 Criteria for DBLCL and 2005 IELSG Criteria for PCNSL ([24], [25]). AEs were recorded and assessed according to the Common Terminology Criteria for Adverse Events (CTCAE) v4.0.
Continuous variables were expressed as median and range and compared by Mann–Whitney U-test. Categorical variables were reported as percentages and compared by chi-squared test. The duration of response (DOR) was determined using the Kaplan–Meier method. Statistical analyses were performed with SPSS 25.0 (IBM, NY, USA) or Prism 7.0 (GraphPad, CA, USA). P < 0.05 was considered statistically significant.

The subject of the next data set is IL-10. Description: CSF IL-10 concentration during treatment. The class given is in vivo, human. The following applies: case 6, zanubrutinib monotherapy for 7 d.
Data set [7] is described as follows: LC-MS/MS quantification of zanubrutinib in time-matched plasma and CSF samples of patients. In kind it is in vivo, human. The following applies: for concentration at 12 h: read-out: Trough CSF concentration. As to the method: Zanubrutinib is absorbed rapidly with a median time to maximum concentration of 2 h. Blood and CSF samples were collected at 2 or 3 h after the oral administration of zanubrutinib at 160 mg. Zanubrutinib administration was performed for more than 7 d. Additional plasma and CSF specimens for trough concentration testing were collected just before zanubrutinib administration (i.e., 12 h after the last zanubrutinib dose). Biological samples were stored at −20°C for a maximum of one month before analysis.
Zanubrutinib in CSF and sodium heparin plasma samples was quantified by LC-MS/MS. Zanubrutinib standard was obtained from Beigene (Beijing, China). Methanol, methanoic acid, and acetonitrile (high-performance liquid chromatography gradient grade) were purchased from Fisher Scientific, USA. Ultrapure water was obtained using a Milli-Q purification system (Millipore, MA, USA). Control plasma and CSF samples for standards and quality control were obtained from patients treated in the department of hematology of PUMCH. The detailed LC-MS/MS procedure is described in the Supplementary Material .
Zanubrutinib solutions were prepared at a concentration of 1 mg/ml in methanol and further diluted with methanol to obtain working solutions at concentrations of 100–1,000,000 pg/ml. Biological samples (50 µl) were mixed with 10 µl of methanol and 100 µl of acetonitrile. The mixed samples were centrifuged at 2,500 rpm for 3 min at room temperature and at 17,500 rpm for 10 min at 2°C–8°C. The supernatant (120 μl) was then injected into the chromatography system at room temperature.
The analytes were analyzed by reverse-phase chromatography using an UPLC XevoTQ-XS system (Waters Corp., Milford, MA, USA) equipped with an ACQUUITY UPLC®BEH C18 column (2.1×50 mm, 1.7 μm; Waters Corp.). The mobile phase consisted of 0.1% formic acid in acetonitrile and ultrapure water. A mass spectrometer was used in positive mode with an electrospray ionization source. Multiple reaction monitoring mode was used to detect analytes and internal standards.
To create a stock solution of zanubrutinib with a concentration of 1 mg/ml, zanubrutinib (4.55 mg) was added to methanol (4.55 ml). The standard working solution and quality control standard solution of zanubrutinib were then obtained by diluting the stock solution to 1 μg/ml with methanol. To establish the standard curve, the blank control samples of plasma and CSF were added into 50-μl EP tubes followed by the addition of 10 μl standard working solution with different concentrations (see the table below).
The concentrations of analytes in CSF and plasma samples were obtained from the calibration curve constructed by plotting the peak area ratio of each analyte to the internal standard against the concentration. The analyte concentrations in the samples were calculated by linear regression.

Details of data set [8]: method as in package insert. The following applies: ref package insert, cited from earlier work.
For another data set, the system named is TMD8. The settings on record: ABC DLBCL lines in vitro (TMD8); cited from earlier work.
The test system of another data set is CNSL. The following applies: high risk group, prophylaxis; cited from earlier work.
The mark [9] stands for this setting: relapsed non-GCB DLBCL, phase 2, 41 patients.

With `C=CC(=O)N1CCC[C@@H](n2nc(-c3ccc(Oc4ccccc4)cc3)c3c(N)ncnc32)C1` [Ibrutinib, ibrutinib], in [1] (ibrutinib), the Protein binding was 97.3%. Further, the entries for the “Mean Plasma” value in data set [2] (560mg qd), in data set [2] (700mg qd) and in data set [2] (840mg qd) were 53.7 ng/mL, 217.4 ng/mL and 875.6 ng/mL, respectively. Also, the “Patients with disease improvement after monotherapy” value in the data set on DLBCL [3] was 94%.
Turning to `CC#CC(=O)N1CC[C@@H](n2c(=O)n(-c3ccc(Oc4ccccc4)cc3)c3c(N)ncnc32)C1` [Tirabrutinib], the “Mean CSF (trough concentration)” value in [4] (320mg qd) was 2.19 ng/mL; in data set [4] (320mg qd, listed as tirabrutinib) it was 2.19 ± 0.476 ng/mL; in data set [4] (480mg qd), 14.0 ng/mL; in [4] (480mg qd, listed as tirabrutinib) it was 14.0 ± 8.92 ng/mL. For the same compound, the “Mean Plasma” value in data set [4] (320mg qd) is 16.3 ng/mL; in data set [4] (480mg qd) it was 77.0 ng/mL.
As to `C=CC(=O)N1CCC([C@@H]2CCNc3c(C(N)=O)c(-c4ccc(Oc5ccccc5)cc4)nn32)CC1` [Zanubrutinib], the “Patients who achieved remission” value with DLBCL [5] (among 75 patients with non-Hodgkin lymphoma (including 23 with DLBCL)) is given as 14. Moreover, in the data set with DLBCL [5] (relapsed non-GCB DLBCL, phase 2, 41 patients, median follow-up 6.8 months), the ORR is 29.3%. In addition, in the data set on DLBCL [5] (setting [9]), the “AEs leading to treatment discontinuation, patients” value was “four”. Also, the Complete response rate in the data set on DLBCL [5] (setting [9]) is on record as 17.1%. Also, the “MRI lesion in the cerebellum” value in data set [6] was “shrank and disappeared within three weeks”; in [6] (listed as zanubrutinib) it was “the mass shrank and disappeared”. Further, in data set [6] (two relapsed PCNSL cases, monotherapy before combination chemotherapy), the “Response to monotherapy as lead-in therapy” value was “rapid and dramatic response; also recorded: significant disease control within 14 d”. Moreover, the Protein binding rate in data set [1] (zanubrutinib, no reference given) is on record as 94%. For the same compound, in the data set with IL-10, the “CSF IL-10 concentration” value is reported as “dramatically decreased”. Moreover, the “Mean CSF” value in data set [7] (160mg bid) is 2.94 ng/mL. Besides, the “Mean Plasma” value in data set [7] (160mg bid) amounted to 143.2 ng/mL. Moreover, the “Samples with peak CSF concentration above the IC50 values” in [7] (22/23 samples) worked out at 95.7%. Also, the “Corrected CSF/plasma ratio” value is given as 42.7 ± 27.7% in data set [7] (corrected for 94% protein binding, entire series, 23 samples) and 42.7% ± 27.7% in data set [7] (corrected for 94% protein binding, entire series, 23 samples, listed as zanubrutinib). Further, the Mean plasma concentration in data set [7] (entire series, 23 samples, peak time point 2-3 h after 160 mg oral, 160 mg twice per day) was 143.1906 ± 93.3027 ng/mL. The concentration at 2 h in [7] (human, CSF, oral, 160 mg, 2 h after administration, 10 samples, read-out: Mean CSF concentration) was 4.12 ± 2.86 ng/mL; in [7] (human, plasma, oral, 160 mg, 2 h after administration, 10 samples, read-out: Mean plasma concentration) it was 183 ± 91.1 ng/mL. Besides, the concentration at 3 h was determined as 2.43 ± 2.03 ng/mL in [7] (human, CSF, oral, 160 mg, 3 h after administration, 13 samples, read-out: Mean CSF concentration) and 126 ± 91.6 ng/mL in [7] (human, plasma, oral, 160 mg, 3 h after administration, 13 samples, read-out: Mean plasma concentration). The concentration at 12 h amounted to 0.267 ng/mL in data set [7] (human, CSF, oral, 160 mg, case 1, 12 h after the last dose) and 5.02 ng/mL in data set [7] (human, CSF, oral, 160 mg, case 3, 12 h after the last dose). The Kp at 2 h in data set [7] (human, CSF/plasma, oral, 160 mg, 2 h after administration, 10 samples, read-out: Corrected CSF/plasma ratio) stood at 0.412 ± 0.325. The Kp at 3 h in data set [7] (human, CSF/plasma, oral, 160 mg, 3 h after administration, 13 samples, read-out: Corrected CSF/plasma ratio) was 0.433 ± 0.265. In addition, the Kp in data set [7] (human, CSF/plasma, oral, 160 mg, corrected for 94% protein binding, entire series, 23 samples, read-out: Corrected CSF/plasma ratio) was ~0.4; in data set [7] (human, CSF/plasma, oral, 160 mg, corrected for 94% protein binding, entire series, read-out: Corrected CSF/plasma ratio, range), 0.086 to 1.06; in [7] (human, CSF/plasma, oral, 160 mg, not corrected for protein binding, read-out: CSF/plasma ratio), ~0.02; in data set [7] (human, CSF/plasma, oral, 160 mg, not corrected for protein binding, read-out: CSF/plasma ratio, range), 0.0061 to 0.0583; in data set [7] (human, CSF/plasma, oral, 160 mg, six patients with repeated samples in different cycles, read-out: CSF/plasma ratio, range among patients), 0.105 to 0.781. Also, the results for the “Median time to maximum concentration” value in data set [8] and in data set [8] (listed as zanubrutinib) were 2 h and “approximately 2 h”, respectively. Moreover, the IC50 (commonly the point on the concentration scale where inhibition reaches its midpoint) in the data set on TMD8 was 0.4 nM.
In the case of `CN(Cc1cnc2nc(N)nc(N)c2n1)c1ccc(C(=O)N[C@@H](CCC(=O)O)C(=O)O)cc1` [high-dose MTX, methotrexate], in the data set with CNSL, the CNS relapsing rate is on record as > 10%.
